# Test results taken from patent publication US6300499A, “α1-adrenergic receptor antagonists” (Societe de Conseils de Recherches et d'Applications …, priority 1998, dated 2001).
# Experiments:
# α1-adrenergic receptor = assay: Test of the bond to the α1-adrenergic receptor (inhibition of [3H]prazosin bond to rat cerebral cortex); format: binding, rat (male Sprague Dawley); conditions: [3H]prazosin 0.2 nM, rat cerebral cortex membranes, 30 min, 25° C., pH 7.7
# Experimental: The cerebral cortices of male Sprague Dawley rats are homogenized at 4° C. in Tris-HCl 50 mM pH=7.7 and centrifuged at 50,000 g for 30 minutes at 4° C. The pellets are again suspended in the same buffer and centrifuged again at 50,000 g for 30 minutes at 4° C.
# The filters are rinsed three times with the same buffer at 0-4° C. and their radioactivity is tested by liquid scintillation spectrometry.
# The specific bonds are obtained by subtracting the non-specific bonds (determined in the presence of 10 μM of phentolamine (Sigma Chemical Co. St. Louis Mo.)) from the total bonds. The data relative to the bonds is analyzed by computer assisted iterative non-linear regression analysis, using the Ligand program (Munson, P. J., Rodbard, D. Anal. Biochem. 107:220 (1980)).
# prostatic urethrae = assay: Urethra Contraction Test (inhibition of phenylephrine contraction of prostatic urethra); set-up: species or system rabbit (male New Zealand); conditions: inhibition of contraction of rabbit prostatic urethra, agonist phenylephrine, compound 30 min before
# Experimental: The urethrae are removed from male New Zealand rabibits, and cleaned of the surrounding connective tissues. Bands of prostatic urethrae (3 mm wide, 10-15 mm long) are suspended (1 g tension) in organ baths containing 10 ml of physiological solution (pH 7.4) at 37° C. under an atmosphere of 95% O2 /5% CO2; NaCl (118 mM); KCl (4.7 mM); CaCl2 (2.5 mM); KH2 PO4 (1.2 mM); MgSO4 (1.2 mM); NaHCO3 (25 mM); glucose (11 mM). The contractile responses are measured using force displacement transducers coupled to a Gould 8000S polygraph. A one hour period of equilibration or equalization is provided before the experiment. After equalization, the preparations are sensitized by a submaximal concentration of phenylephrine. Forty five minutes after the sensitization, a concentration-effect curve for the phenylephrine is established. In order to determine the effect of the test compounds, different preparations originating from the same animal are used in parallel. One preparation serves as a control whilst the others receive a concentration of a test compound introduced into the bath 30 minutes before the phenylephrine (Auguet, M. et al. European J. Pharmacol. 217:153 (1995)).
# The dissociation constants (Kb) of the test compounds are determined using the following equation: Kb =[B]/(dose ratio--1); in which [B] is the concentration of test compound and (dose ratio) is the EC50 of phenylephrine in the presence of the test compound divided by the EC50 of the control preparation. These resultats are then expressed as the negative logarithm of Kb. The values of the EC50 are calculated from the maximum contractile response to the phenylephrine by computer analysis using a linear regression over the average tension values. The maximum contractile response of each preparation which was subjected to the test compound is determined by comparing the response provoked by the application of the sensitizing concentration of phenylephrine with the response provoked in the control preparation (which has not received the test compounds).
# aorta of the rat = assay: Test of the contraction of the aorta of the rat (phenylephrine); set-up: species or system rat (male Sprague Dawley); conditions: agonist phenylephrine, compound 60 min before
# Experimental: (§1) The aorta and the portal vein are extracted from male Sprague Dawley rats (275-350 g, Charles River, France) after cervical dislocation and cleaned of the surrounding connective tissues. […] The contractile responses are measured using force displacement transducers either coupled to a Gould […] polygraph or connected to a data retrieval system ([…], France). A one hour period of equilibration or equalization is provided before the experiment. […] Seventy five minutes, after the sensitization, a concentration-effect curve for the phenylephrine is established. In order to determine the effect of the test compounds, different preparations are used in parallel. One preparation serves as a control whilst the others receive different test compounds introduced into the bath 60 minutes before the aministration of the phenylephrine. The results are expressed as averages ±S.E.M. or percentage of contraction. […] The EC50 values are calculated from the maximum contractile response by computer analysis using a linear regression over the average tension values.
# portal vein of the rat = assay: Test of the contraction of the portal vein of the rat (phenylephrine); set-up: species or system rat (male Sprague Dawley)
# Experimental: as §1
# aorta of the rabbit = assay: Test of the contraction of the aorta of the rabbit (phenylephrine); set-up: species or system rabbit (male New Zealand); conditions: agonist phenylephrine, compound 60 min before
# Experimental: (§2) The aorta and the portal vein are extracted from male New-Zealand rabbits (2.5-3.5 kg, Dombes Romans, France) after cervical dislocation and cleaned of the surrounding connective tissues. […] The contractile responses are measured using force displacement transducers coupled to a Gould RS3400 polygraph. A one hour period of equilibration or equalization is provided before the experiment. […] When the contraction provoked by the phenylephrine is stabilized, carbachol (10 μM) is administered with the aim of controlling the disorganisation of the endothelium in the vessels. Seventy five minutes after the sensitization, a concentration-effect curve for the phenylephrine is established. In order to determine the effect of the test compounds, different preparations are used in parallel. One preparation serves as a control whilst the others receive different concentrations of test compounds introduced into the bath 60 minutes before the phenylephrine. The results are expressed as averages ±S.E.M. or percentage of contraction. […] The EC50 values are calculated from the maximum contractile response by computer analysis using a linear regression over the average tension values.
# [1] = test system: portal vein of the rabbit; assay: Test of the contraction of the portal vein of the rabbit (phenylephrine); set-up: species or system rabbit (male New Zealand)
# Experimental: as §2
# [2] = test system: saphenous vein of the rabbit; assay: Test of the contraction of the saphenous vein of the rabbit (phenylephrine); set-up: species or system rabbit (male New Zealand)
# Experimental: The contractile responses are measured using force displacement transducers coupled to a Gould RS3400 polygraph. […] A one hour period of equilibration or equalization is provided before the experiment. During this equalization period, the tension of the venous rings is left to relax and the final tension is maintained at 0.5 g. After equalization, the preparations are sensitized by a submaximal concentration (3 μM) of phenylephrine. When the contraction triggered by the phenylephrine is stabilized, carbachol (10 μM) is administered in order to control the disorganisation of the endothelium in the vessels. Seventy five minutes after the sensitization, a concentration-effect curve for the phenylephrine is established. In order to determine the effect of the test compounds, different preparations are used in parallel. One preparation serves as a control whilst the others receive different test compounds introduced into the bath 60 minutes before the administration of the phenylephrine The results are expressed as averages ±S.E.M. or percentage of contraction. […] The EC50 values are calculated from the maximum contractile response by computer analysis using a linear regression over the average tension values.
structure (smiles),measurement,setting,value
"Cc1ccc(C)c(N2CCN(CCCNC(=O)[C@@](C)(O)c3ccccc3)CC2)c1 [Compound 45, S-(+)-N-[3-{4-(2,5-dimethylphenyl)-1-piperazinyl}-propyl]-α-hydroxy-α-methyl-benzeneacetamide]",Ki,α1-adrenergic receptor,13 nM
same,-log Kb,prostatic urethrae,8.3
same,Kb,aorta of the rat,45 nM
same,Kb,"portal vein of the rat; rat portal vein, agonist phenylephrine, compound 60 min before",1.4 nM
same,Selectivity Kb (Aorta)/Kb (Vein),"portal vein of the rat; rat, aorta / portal vein",32
same,Kb,aorta of the rabbit,63 nM
same,Kb,"[1]; rabbit portal vein, agonist phenylephrine, compound 60 min before",1.6 nM
same,Selectivity Kb (Aorta)/Kb (Vein),"[1]; rabbit, aorta / portal vein",40
same,Kb,"[2]; rabbit saphenous vein, agonist phenylephrine, compound 60 min before",15 nM
same,Selectivity Kb (Salphenous vein)/Kb (Portal vein),"[2]; rabbit, saphenous vein / portal vein",8.4
